Literature values, collected in patent US4756910A, “Adriamycin-entrapping liposome preparation” (priority 1985, dated 1988).

SMILES: COc1cccc2c1C(=O)c1c(O)c3c(c(O)c1C2=O)C[C@@](O)(C(=O)CO)C[C@@H]3O[C@H]1C[C@H](N)[C@H](O)[C@H](C)O1 [Free adriamycin, Adriamycin]
- Cardiac toxicity (in words) (background statement): accumulative cardiac toxicity
- Disappearance from the blood (in words) (in vivo, iv): rapidly disappears from the blood after intravenous administration
